According to PMC2826142 (Journal of medicinal chemistry, 2010):
“Also recorded” adds a separate entry of the source.

Experiments:
[1] = tested on: forskolin stimulated cAMP generation; assay: Forskolin stimulated cAMP generation; assay type: cell-based; conditions: data not shown
[2] = target: T1, human adenosine A2A receptor (Homo sapiens, UniProt P29274); assay: Radioligand displacement at A2AAR-HEK membranes; assay type: binding; conditions: for Max Displacement at A2AAR-HEK membranes: 10 µM of test compound; for A2A / A1 selectivity: mammalian membranes, A2AAR over A1AR
T1 sequence (P29274 whole entry): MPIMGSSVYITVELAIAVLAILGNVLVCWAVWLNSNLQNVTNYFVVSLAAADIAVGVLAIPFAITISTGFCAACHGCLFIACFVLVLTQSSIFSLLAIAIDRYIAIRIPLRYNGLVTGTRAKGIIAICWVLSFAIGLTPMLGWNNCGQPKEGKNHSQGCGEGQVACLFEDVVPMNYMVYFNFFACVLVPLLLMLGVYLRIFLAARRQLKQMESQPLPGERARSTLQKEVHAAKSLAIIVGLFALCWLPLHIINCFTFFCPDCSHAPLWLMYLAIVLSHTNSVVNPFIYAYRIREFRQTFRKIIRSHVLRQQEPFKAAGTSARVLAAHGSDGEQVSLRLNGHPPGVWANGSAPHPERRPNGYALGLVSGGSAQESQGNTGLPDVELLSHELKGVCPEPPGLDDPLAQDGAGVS

[3] = target: T2, human adenosine A1 receptor (Homo sapiens, UniProt P30542); assay: Radioligand; assay type: binding; conditions: for inhibition at 10 µM: read-out: Max Displacement A1AR-CHO membranes
T2 sequence (P30542 1-326): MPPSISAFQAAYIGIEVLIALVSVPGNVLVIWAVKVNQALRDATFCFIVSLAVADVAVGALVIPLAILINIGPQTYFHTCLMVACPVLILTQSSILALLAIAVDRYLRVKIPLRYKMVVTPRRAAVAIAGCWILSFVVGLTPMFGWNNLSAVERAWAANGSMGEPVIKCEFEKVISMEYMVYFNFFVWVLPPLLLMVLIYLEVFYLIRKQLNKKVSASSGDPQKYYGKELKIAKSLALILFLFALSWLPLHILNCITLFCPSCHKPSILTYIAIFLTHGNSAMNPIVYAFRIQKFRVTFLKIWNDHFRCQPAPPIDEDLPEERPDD

[4] = target: T1, human adenosine A2A receptor; assay: Functional cAMP accumulation assay; assay type: cell-based; conditions: 10 µM compound, 10 nM or 10 µM 3a
human A2AAR receptor = human A2AAR receptor (Homo sapiens, UniProt P29274); assay: Competition binding with tritiated compound 1; conditions: for LE (experimental ligand efficiency): ligand binding energy per heavy atom, from Sf9 Ki
Sequence of human A2AAR receptor (P29274 whole entry): as the sequence (P29274 whole entry) above

[5] = Visible sedimentation in binding assay; conditions: binding assay buffer

In the case of `Nc1c(C(=O)Nc2ccccc2F)sc2nc3c(cc12)C(=O)CCC3` [compound 6], the “effect on forskolin stimulated cAMP generation” value [1] is reported as “inhibited”, the Ki [2] is reported as 60 nM and the “Max Displacement at A2AAR-HEK membranes” value [2] is reported as 48%. The “A2A / A1 selectivity” value [2] was 1.42 fold, the Ki [3] was 90 nM and the inhibition at 10 µM [3] was 32%. The “A2AAR antagonist functional activity (in words)” value [4] was “the effect does not depend on agonist concentration”.

In the case of `CN1CCc2sc3nc(C(=O)Nc4ccc(F)cc4)c(N)cc3c2C1` [compound 7], the Ki (human A2AAR receptor) is reported as 1900 nM.

With `N#Cc1c(N)nc2c(C(N)=O)c(Nc3ccccc3)sc2c1-c1ccccc1` [compound 8] the Ki [2] was 1140 nM, the “Max Displacement at A2AAR-HEK membranes” value [2] was 53% and the “A2A / A1 selectivity” value [2] was 0.05 fold. The Ki [3] was 60 nM, the inhibition at 10 µM [3] was 100% and the “A2AAR antagonist functional activity (in words)” value [4] was “No A2AAR specific activity; also recorded: does not have any functional activity”.

For `COc1ccc(Cl)cc1Nc1nc(N)nc(-c2oc3ccccc3c2C)n1` [compound 9], the Ki (human A2AAR receptor) was 30 nM, the “displacement of the hot ligand” value (human A2AAR receptor; Sf9 membranes, at 2 µM) was “up to 80%” and the Ki [2] was 490 nM. For the same compound, the “Max Displacement at A2AAR-HEK membranes” value [2] was 41%, the “A2A / A1 selectivity” value [2] was 2.94 fold and the “concentration with visible sedimentation of the compound” value [5] was “above 10 µM”. For the same compound, the Ki [3] was 1440 nM, the inhibition at 10 µM [3] was 41% and the “A2AAR antagonist functional activity (in words)” value [4] was “one of the highest among the tested ligands”.

For `CN1CCc2nc3sc(C(=O)Nc4ccc(Cl)cc4)c(N)c3cc2C1` [compound 10], the Ki [2] was greater than 10000 nM, the “binding to the HEK293 expressed A2AAR protein (in words)” value ([2]; HEK293 membranes) was “did not show any substantial binding” and the Ki [3] was 1120 nM. It also gave an inhibition at 10 µM [3] of 28%.

With `Nc1c(C(=O)Nc2nccs2)sc2nc3c(cc12)C(=O)CCC3` [compound 14] the Ki [2] was 60 nM, the “Max Displacement at A2AAR-HEK membranes” value [2] was 54% and the “A2A / A1 selectivity” value [2] was 2.24 fold. The Ki [3] was 140 nM and the inhibition at 10 µM [3] was 25%.

With `N#Cc1c(N)nc2c(oc3ccccc32)c1-c1ccccc1` [compound 15] the Ki [2] was 560 nM, the “Max Displacement at A2AAR-HEK membranes” value [2] was 73% and the “A2A / A1 selectivity” value [2] was 0.87 fold. For the same compound, the Ki [3] was 480 nM and the inhibition at 10 µM [3] was 27%.

With `Nc1c(C(=O)c2ccccc2)oc2ccc(Br)cc12` [compound 16] the “A2AAR affinity (in words)” value (human A2AAR receptor; Sf9 membranes) was “modest affinity” and the “LE (experimental ligand efficiency)” value (human A2AAR receptor) was 0.38 kcal/mol per heavy atom.

With `NC1=C(Nc2cccc(C(F)(F)F)c2)C(=O)c2ccccc2C1=O` [compound 17] the “LE (experimental ligand efficiency)” value (human A2AAR receptor) was ~ 0.4 kcal/mol per heavy atom, the Ki [2] was 720 nM and the “Max Displacement at A2AAR-HEK membranes” value [2] was 73%. The “A2A / A1 selectivity” value [2] was greater than 10. fold, the Ki [3] was greater than 10000 nM and the “A2AAR antagonist functional activity (in words)” value [4] was “significant activity”.

For `Nc1c(Oc2ccccc2)ccc2c1C(=O)c1ccccc1C2=O` [compound 20], the “A2AAR affinity (in words)” value (human A2AAR receptor; Sf9 membranes) was “low-µM affinity”.

In the case of `Cc1ccc(N2C(=O)c3cccc(N)c3C2=O)cc1` [compound 21], the “A2AAR affinity (in words)” value (human A2AAR receptor; Sf9 membranes) is reported as “modest”, the “Max Displacement at A2AAR-HEK membranes” value [2] is reported as 57% and the “A2A / A1 selectivity” value [2] is reported as 0.13 fold. For the same compound, the Ki [3] was 390 nM and the inhibition at 10 µM [3] was 86%.

In the case of `COc1ccc(N)c2c1C(=O)c1ccccc1C2=O` [compound 26], the “A2AAR affinity (in words)” value (human A2AAR receptor; Sf9 membranes) is reported as “sub-µM affinity”, the Ki [2] is reported as 100 nM and the “Max Displacement at A2AAR-HEK membranes” value [2] is reported as 100%. The “A2A / A1 selectivity” value [2] was 2.74 fold, the Ki [3] was 260 nM and the inhibition at 10 µM [3] was 100%.

For `Nc1cccc2c1C(=O)c1ccccc1C2=O` [compound 28], the “A2AAR affinity (in words)” value (human A2AAR receptor; Sf9 membranes) was “low-µM affinity”.

In the case of `Nc1ccc(N)c2c1C(=O)c1ccccc1C2=O` [compound 29], the “A2AAR affinity (in words)” value (human A2AAR receptor; Sf9 membranes) is reported as “sub-µM affinity”, the Ki [2] is reported as 110 nM and the “Max Displacement at A2AAR-HEK membranes” value [2] is reported as 100%. For the same compound, the “A2A / A1 selectivity” value [2] was 2.51 fold, the Ki [3] was 280 nM and the inhibition at 10 µM [3] was 100%.

With `Cn1c(=O)cc2c3c(c(N)ccc31)C(=O)c1ccccc1-2` [compound 35] the “A2AAR affinity (in words)” value (human A2AAR receptor; Sf9 membranes) was “sub-µM affinity”, the Ki [2] was 200 nM and the “Max Displacement at A2AAR-HEK membranes” value [2] was 100%. The “A2A / A1 selectivity” value [2] was 0.75 fold, the Ki [3] was 150 nM and the inhibition at 10 µM [3] was 100%.

With `Nc1c(Sc2ccccc2)cc(Sc2ccccc2)c2c1C(=O)c1ccccc1C2=O` [compound 38] the “A2AAR affinity (in words)” value (human A2AAR receptor; Sf9 membranes) was “low-µM affinity”.

With `CC(=O)Oc1cccc(-c2nc(C(N)=O)c(N)o2)c1` [compound 46] the “A2AAR affinity (in words)” value (human A2AAR receptor; Sf9 membranes) was “modest affinity” and the “LE (experimental ligand efficiency)” value (human A2AAR receptor) was 0.32 kcal/mol per heavy atom.

For `Nc1ccc(Cl)c2c1C(=O)c1ccccc1C2=O` [compound 49], the “A2AAR affinity (in words)” value (human A2AAR receptor; Sf9 membranes) was “sub-µM affinity”, the Ki [2] was 940 nM and the Ki [3] was 190 nM. The inhibition at 10 µM [3] was 100%.

With `Cc1cccc(NC2=C(N)C(=O)c3ccccc3C2=O)c1` [compound 50] the “LE (experimental ligand efficiency)” value (human A2AAR receptor) was ~ 0.4 kcal/mol per heavy atom, the Ki [2] was 150 nM and the “Max Displacement at A2AAR-HEK membranes” value [2] was 50%. The Ki [3] was 1750 nM, the inhibition at 10 µM [3] was 27% and the “A2AAR antagonist functional activity (in words)” value [4] was “significant activity”.

With `Nc1ccc(-c2nc3c(N)cccc3[nH]2)cc1` [compound 57] the “LE (experimental ligand efficiency)” value (human A2AAR receptor) was 0.32 kcal/mol per heavy atom.
